Results on 45 compounds are retold here after patent publication US9738610B2, “Indazole derivatives and uses thereof” (Whitehead Institute for Biomedical Research, priority 2012, dated 2017).

For data set [1], the system named is C. albicans CaCi-8. As to the kind of experiment: microbe, parasite or virus in culture. The data set is classed as cell-based, Candida albicans. The following applies: in the presence of fluconazole; read-out: Target Potency (μM) Mean ± S.E.M CaCi-8^a IC50. The procedure:
This subset was re-subjected to the primary assay and was also tested concurrently in two secondary assays. Secondary assay 1 measured chemosensitization of the more resistant CaCi-8 strain. Secondary assay 2 eliminated anything with inherently antifungal activity. […] A final assay (secondary assay 3) was incorporated to discard any compound displaying toxicity to mammalian fibroblasts. […] This screening campaign is also illustrated in FIG. 3B.
Those that inhibited growth in the resistant strain were also tested for toxicity against Candida in the absence of fluconazole and for toxicity against mammalian cells using a fluorescence reporter assay. The positive control for screening in the Candida and mammalian cell assays was the Hsp90 inhibitor geldanamycin (acting in concert with fluconazole; FIG. 4). Compounds that passed these four hurdles were binned through use of a Saccharomyces assay to determine whether the mechanism of action might be through the Hsp90 pathway, the calcineurin pathway, or an uncategorized mechanism.

Data set [2] is described as follows: Plasma stability. To be noted: % remaining in human plasma after a 5-hour incubation.
Data set [3] is described as follows: Plasma protein binding. To be noted: % bound in human plasma.
Data set [4] has as its system C. albicans CaCi-2. The experiment in a line: Secondary single-agent (no-fluconazole) activity assay. The class given is cell-based, Candida albicans. To be noted: in the absence of fluconazole; read-out: Target Potency (μM) Mean ± S.E.M CaCi-2^b IC50. The procedure: Clear, flat-bottom, black, 384-well plates were obtained from Corning. […] Pen/Strep was obtained from Gibco and prepared 100× in PBS. Fluconazole was obtained from Sigma and prepared in 2 mg/ml stock solution in PBS. Alamar Blue was obtained from Biosource International (Catalog No. DAL1100). Phosphate buffered solution (PBS) without calcium and magnesium was obtained from Cellgro.
Fungal inoculum was prepared as follows: 500 μl of yeast was inoculated from cryopreserved stock into a 250-ml shaker flask containing 30 ml growth medium and shaken overnight (16 hours) at 30° C. The culture was spun down, and the broth was poured off and washed with RPMI medium. The culture was spun down again, and the broth was poured off and resuspended in RPMI medium. The OD 600 of 1 ml of fungal culture in a cuvette was read using a standard optical density reader with growth medium as a background blank. The desired volume of fungal inoculum was diluted to starting OD of the fungal inoculum of 0.00015 A600.
Pen/Strep was added to the media to a final 1% concentration. A Combi NL (Thermo) was used to dispense 20 μl/well of assay media into all wells. Geldanamycin (1.5 mM) and fluconazole (0.2 mg/ml) were mixed for the positive control. Then, 80 nl of positive control solution was dispensed into the positive control wells using Thermo Combi nL for a final concentration of 3 μM geldanamycin and 8 μg/ml fluconazole. Then, 100 nl of test compound were pinned from the compound plates into assay plates using a CyBi-Well pin tool. A further 20 μl/well of RPMI synthetic defined medium culture was dispensed into 384-well, black plates. Fungal suspension (20 μl/well) was dispensed into all wells. The plates were incubated in a humidified (90% humidity) Liconic incubator at 37° C. without agitation for 48 hours. Alamar Blue Reagent was diluted 1:40 in Ca/Mg-free PBS. To all plates, 6.4 μl/well of the diluted Alamar Blue was added to the plates to a final dilution factor of 1:200. The plates were incubated for 2 hours at room temperature. Next, RFU of wells was read on a standard plate reader as a measure of relative fungal growth.

Data set [5] concerns the target T1, yeast (Saccharomyces cerevisiae, UniProt P00163).
T1 construct: Mitochondrial membranes were prepared from yeast; endogenous in cells; host or cells: yeast (mitochondrial membranes)
As to the kind of experiment: IC50 values and selectivity of Table 10A (target yeast, anti-target human cytochrome). To be noted: for IC50: target is yeast; for Selectivity* (anti-target IC50)/(target IC50): target yeast, anti-target human cytochrome. The data set is classed as biochemical. The procedure:
All measurements were performed in triplicate.

One may read the IC50 as the concentration that gives 50% inhibition. Turning to `O=C(O)Cn1nc(-c2ccccc2)c2ccccc21` [Compound 5309553], the IC50 in data set [1] and in data set [4] was more than 26 µM each time. The “Plasma Stability” value in data set [2] is more than 99%. Moreover, in data set [3], the “Plasma Protein Binding” value stood at 97%.

Consider `COC(=O)Cn1nc(-c2ccccc2)c2cc(Cl)ccc21` [Compound 9551137], for which the IC50 in data set [1] is 9.84 µM; in data set [4], more than 26 µM. The “Plasma Stability” value in data set [2] is reported as less than 1.0%. In addition, the “Plasma Protein Binding” value in data set [3] is reported as more than 99%.

As for `CCOC(=O)Cn1nc(-c2ccccc2)c2ccccc21` [Compound 13330959], the 50% inhibitory concentration (IC50) in data set [1] and in data set [4] was more than 26 µM throughout. In addition, in data set [2], the “Plasma Stability” value worked out at 20%. Also, in data set [3], the “Plasma Protein Binding” value was determined as 99%.

In the case of `COC(=O)Cn1nc(-c2ccc(Cl)cc2)c2ccccc21` [Compound 46856253], the IC50 in data set [1] is 11.6 µM; in data set [4] it was more than 26 µM. Also, the “Plasma Stability” value in data set [2] was 6.4%. The “Plasma Protein Binding” value in data set [3] is listed as more than 99%.

Consider `COC(=O)Cn1nc(C)c2ccccc21` [Compound 46856254], for which the IC50 in data set [1] turned out to be 21.3 ± 8.1 µM. Besides, the “Plasma Stability” value in data set [2] amounted to 3.0%. The “Plasma Protein Binding” value in data set [3] is 42%.

With `COC(=O)Cn1nc(-c2ccc(F)cc2F)c2ccccc21` [Compound I-70], in data set [5], inhibition was half-maximal at 275 nM (IC50) and the “Selectivity* (anti-target IC50)/(target IC50)” value (shortened to “Selectivity*”) is reported as 58.2.

Take `COC(=O)Cn1nc(-c2cccc(C(F)(F)F)c2)c2ccccc21` [Compound I-72]: in data set [5], inhibition was half-maximal at 40 nM (IC50) and the “Selectivity*” value was 200.

`CS(=O)(=O)Cn1nc(-c2ccccc2)c2ccccc21` [Compound I-73] registered a concentration for half-maximal inhibition (IC50) in data set [5] of more than 80000 nM.

For `COC(=O)Cn1nc(-c2cccs2)c2ccccc21` [Compound I-76], in data set [5], the half-maximal inhibitory concentration (IC50) worked out at 1250 nM and the “Selectivity*” value is recorded as 32.

Regarding `COC(=O)Cn1nc(-c2cccc(OCCC34CC5CC(CC(C5)C3)C4)c2)c2ccccc21` [Compound I-80], in data set [5], the IC50 was found to be 12.5 nM and the “Selectivity*” value amounted to 20.

With `COC(=O)Cn1nc(-c2ccccc2)c2c(C)cccc21` [Compound I-81], in data set [5], half-maximal inhibition (IC50) required 1250 nM and the “Selectivity*” value worked out at 8.

Take `COC(=O)Cn1nc(-c2ccccc2)c2cc(C(F)(F)F)ccc21` [Compound I-83]: in data set [5], inhibition was half-maximal at 40000 nM (IC50) and the “Selectivity*” value turned out to be 3.

Take `Cc1nnc(Cn2nc(-c3ccccc3)c3ccccc32)o1` [Compound I-84]: in data set [5], the 50% inhibitory concentration (IC50) turned out to be 8000 nM and the “Selectivity*” value was more than 32.

Consider `c1ccc(-c2nn(Cc3ncon3)c3ccccc23)cc1` [Compound I-85], for which, in data set [5], inhibition was half-maximal at 2000 nM (IC50) and the “Selectivity*” value came out at 40.

Regarding `Cc1nc(Cn2nc(-c3ccccc3)c3ccccc32)no1` [Compound I-86], in data set [5], the IC50 was 5000 nM and the “Selectivity*” value was more than 32.

On to `COC(=O)Cn1nc(-c2cc(C(F)(F)F)ccc2F)c2ccccc21` [Compound I-88], for which, in data set [5], the IC50 stood at 25 nM and the “Selectivity*” value is 200.

For the compound `COC(=O)Cn1nc(-c2ccccc2)c2c(C(F)(F)F)cccc21` [Compound I-89], in data set [5], the IC50 was 10000 nM and the “Selectivity*” value turned out to be 3.75.

Consider `Cn1nnc(Cn2nc(-c3ccccc3)c3ccccc32)n1` [Compound I-90], for which, in data set [5], the IC50 came to 1250 nM and the “Selectivity*” value was 32.

In data set [5], `Cn1nnnc1Cn1nc(-c2ccccc2)c2ccccc21` [Compound I-91] yielded a concentration for half-maximal inhibition (IC50) of more than 20000 nM.

As for `c1ccc(-c2nn(Cc3c[nH]nn3)c3ccccc23)cc1` [Compound I-93], in data set [5], half-maximal inhibition (IC50) was put at 25000 nM and the “Selectivity*” value is reported as more than 6.

Consider `Cn1cc(Cn2nc(-c3ccccc3)c3ccccc32)nn1` [Compound I-94], for which, in data set [5], half-maximal inhibition (IC50) was put at 40000 nM and the “Selectivity*” value is more than 4.

`Cn1nncc1Cn1nc(-c2ccccc2)c2ccccc21` [Compound I-95] returned an IC50 in data set [5] of more than 20000 nM.

On to `Cn1nnc(Cn2nc(-c3cc(C(F)(F)F)ccc3F)c3ccccc32)n1` [Compound I-98], for which, in data set [5], the IC50 came to 63 nM and the “Selectivity*” value is reported as 48.

For `COC(=O)Cn1nc(-c2cc(OCCCC3CCCCC3)ccc2F)c2ccccc21` [Compound I-100], in data set [5], the midpoint of inhibition, the IC50, lay at 7 nM and the “Selectivity*” value came to 54.

With `COC(=O)Cn1nc(-c2cc(OCCCC3CCCCC3)ccc2F)c2cccc(C)c21` [Compound I-101], in data set [5], the midpoint of inhibition, the IC50, lay at 1.5 nM and the “Selectivity*” value is 49.

On to `Cc1cccc2c(-c3cc(OCCCC4CCCCC4)ccc3F)nn(Cc3nnn(C)n3)c12` [Compound I-103], for which, in data set [5], inhibition was half-maximal at 7 nM (IC50) and the “Selectivity*” value stood at 71.

In turn, `FC(F)Cn1nc(-c2ccccc2)c2ccccc21` [Compound I-110] returned an IC50 in data set [5] of more than 120000 nM.

`N#Cc1ncccc1-n1nc(-c2ccccc2)c2ccccc21` [Compound I-112]: the IC50 in data set [5] is more than 120000 nM.

In turn, `c1ccc(-c2nn(Cc3ccccn3)c3ccccc23)cc1` [Compound I-114] came in with a half-maximal inhibitory concentration (IC50) in data set [5] of more than 120000 nM.

`COC(=O)Cn1nc(-c2cccnc2)c2ccccc21` [Compound I-121] returned a half-inhibitory concentration (IC50) in data set [5] of 15000 nM.

Take `c1ccc(-c2nn(Cc3ncccn3)c3ccccc23)cc1` [Compound I-123]: the IC50 in data set [5] was more than 120000 nM.

`Fc1ccc(C(F)(F)F)cc1-c1nn(Cc2cnccn2)c2ccccc12` [Compound I-125]: in data set [5], the concentration for half-maximal inhibition (IC50) is 59 nM and the “Selectivity*” value is reported as 340.

`Cc1cccc2c(-c3cc(C(F)(F)F)ccc3F)nn(Cc3cnccn3)c12` [Compound I-126]: in data set [5], the IC50 was found to be 94 nM and the “Selectivity*” value is recorded as 320.

`COC(=O)Cn1nc(-c2c(C)cccc2C)c2ccccc21` [Compound I-127]: the IC50 in data set [5] was more than 32000 nM.

For `COC(=O)Cn1nc(-c2c(F)cccc2F)c2ccccc21` [Compound I-128], in data set [5], the IC50 came out at 500 nM and the “Selectivity*” value came out at 32.

With `COC(=O)Cn1nc(-c2cc(F)ccc2F)c2ccccc21` [Compound I-129], in data set [5], half-maximal inhibition (IC50) was put at 150 nM and the “Selectivity*” value is given as 133.

In the case of `COC(=O)Cn1nc(-c2cccc(F)c2F)c2ccccc21` [Compound I-130], in data set [5], half-maximal inhibition (IC50) was put at 250 nM and the “Selectivity*” value turned out to be 32.

Turning to `COC(=O)Cn1nc(-c2cc(F)ccc2C)c2ccccc21` [Compound I-131], in data set [5], the IC50 is 400 nM and the “Selectivity*” value is on record as 40.

With `COC(=O)Cn1nc(-c2ccccc2Cl)c2ccccc21` [Compound I-132], in data set [5], 750 nM corresponded to half-maximal inhibition (IC50) and the “Selectivity*” value amounted to 32.

For `COC(=O)Cn1nc(-c2cccc(OCc3ccccc3)c2C)c2ccccc21` [Compound I-133], in data set [5], the IC50 was 400 nM and the “Selectivity*” value came to 30.

Consider `COC(=O)Cn1nc(-c2cc(OCc3ccccc3)ccc2C)c2ccccc21` [Compound I-135], for which, in data set [5], half-maximal inhibition (IC50) required 800 nM and the “Selectivity*” value is listed as 3.75.

For `COC(=O)Cn1nc(-c2cccc(OCCN(C)C)c2)c2ccccc21` [Compound I-137], the concentration for half-maximal inhibition (IC50) in data set [5] is more than 32000 nM.

The compound `CCN(CC)CCOc1cccc(-c2nn(CC(=O)OC)c3ccccc23)c1` [Compound I-138] showed a half-maximal inhibitory concentration (IC50) in data set [5] of more than 32000 nM.

As to `COC(=O)Cn1nc(-c2cccc(OCCN(C(C)C)C(C)C)c2)c2ccccc21` [Compound I-139], in data set [5], the half-maximal inhibitory concentration (IC50) was determined as 1000 nM and the “Selectivity*” value is on record as 6.

On to `COC(=O)Cn1nc(-c2cccc(OCCC3CCCCC3)c2)c2ccccc21` [Compound I-141], for which, in data set [5], the IC50 was 62.5 nM and the “Selectivity*” value is recorded as 12.
